The record followed here is ChEMBL document CHEMBL1154029, “Novel derivatives of ISO-1 as potent inhibitors of MIF biological function” (Bioorg Med Chem Lett, 2009).

Test [1] has as its target T1, Macrophage migration inhibitory factor (Homo sapiens, UniProt P14174).
T1 sequence (P14174 whole entry): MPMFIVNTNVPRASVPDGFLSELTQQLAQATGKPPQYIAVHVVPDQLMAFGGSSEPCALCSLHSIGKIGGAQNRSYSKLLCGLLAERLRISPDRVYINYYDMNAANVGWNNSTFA
As to the kind of experiment: Inhibition of dopachrome tautomerase activity of MIF in human THP1 cells. It counts as cell-based, THP-1.

Test [2] deals with T2, Macrophage migration inhibitory factor (Homo sapiens) (UniProt P14174).
T2 sequence (whole entry): T1 sequence (P14174 whole entry)
In words: Inhibition of MIF-induced TNFalpha production in human PBMC at 100 uM by ELISA. (An ELISA detects its analyte on a solid surface through an enzyme-linked reagent.)

The target in test [3] is T2, Macrophage migration inhibitory factor (Homo sapiens). In words: Inhibition of MIF-induced IL1-beta production in human PBMC at 100 uM by ELISA.
Test [4] concerns the target T1, Macrophage migration inhibitory factor. As to the kind of experiment: Inhibition of spontaneous secretion/release/recognition of MIF from freshly isolated human PBMC by ELISA.
For test [5], the target named is T2, Macrophage migration inhibitory factor (Homo sapiens). As to the kind of experiment: Inhibition of MIF-induced IL6 production in human PBMC at 100 uM by ELISA.
Test [6] addresses T1, Macrophage migration inhibitory factor. In words: Inhibition of dopachrome tautomerase activity of human recombinant MIF.

By IC50 is commonly meant the concentration that inhibits the measured activity by half. In general, inhibition refers to the share of the control response that was lost under treatment. Regarding `O=C1CCC(=O)N1CCC1CC(c2ccc(O)c(F)c2)=NO1` (centres undefined), the figures for the IC50 in test [1], in test [4] (read-out: IC50) and in test [6] were 15 µM, 20 µM and 50 µM, respectively. Moreover, the inhibition in test [2] turned out to be 39%; in test [3], 27%; in test [5], 14%.

Regarding `COc1ccc(C2=NOC(c3noc(C)n3)C2)cc1F` (centres undefined), the IC50 in test [1] was over 100 µM.

Regarding `O=C1c2ccccc2C(=O)N1CCC1CC(c2ccc(O)c(F)c2)=NO1` (centres undefined), the half-inhibitory concentration (IC50) was 0.5 µM in test [1], 1.5 µM in test [4] (read-out: IC50) and 0.8 µM in test [6]. The figures for the inhibition in test [2], in test [3] and in test [5] were 31%, 22% and 22%, respectively.

Take `COC(=O)CCc1nc(C2CC(c3ccc(O)c(F)c3)=NO2)no1` (centres undefined): the IC50 is 50 µM in test [1], “Not Active” in test [4] and over 100 µM in test [6].

Regarding `O=C(CCc1nc(C2CC(c3ccc(O)c(F)c3)=NO2)no1)NC1CCCCC1` (centres undefined), the IC50 in test [1] was 25 µM; in test [4], “Not Active”; in test [6] it was over 100 µM.

As for `Cc1nc(C2CC(c3ccc(O)c(F)c3)=NO2)no1` (centres undefined), the IC50 in test [1] is 60 µM; in test [6] it was over 100 µM.

Consider `CC(C)CC(=O)NCCC1CC(c2ccc(O)c(F)c2)=NO1` (centres undefined), for which the figures for the IC50 in test [1], in test [4] (read-out: IC50) and in test [6] were 29 µM, 20 µM and 22 µM, respectively. Besides, the inhibition in test [2] was determined as 53%; in test [3] it was 58%; in test [5], 47%.

For `Oc1ccc(C2=NOC(c3noc(C(F)(F)F)n3)C2)cc1F` (centres undefined), the IC50 was 60 µM in test [1] and over 100 µM in test [6].

In test [1], `CC(C)CC(=O)NCC1CC(c2ccc(O)c(F)c2)=NO1` (centres undefined) yielded a concentration for half-maximal inhibition (IC50) of over 100 µM.

Molecule `CC(C)(C)C(=O)NCC1CC(c2ccc(O)c(F)c2)=NO1` (centres undefined) came in with a half-inhibitory concentration (IC50) in test [1] of over 100 µM.

Turning to `CN(C)C(=O)NCC1CC(c2ccc(O)c(F)c2)=NO1` (centres undefined), the IC50 in test [1] was over 100 µM.

On to `O=C1c2ccccc2C(=O)N1CCCC1CC(c2ccc(O)c(F)c2)=NO1` (centres undefined), for which the figures for the IC50 in test [1], in test [4] and in test [6] were 2 µM, “Not Active” and 7 µM, respectively.

On to `COC(=O)CC1CC(c2ccc(O)cc2)=NO1` (centres undefined), for which the results for the inhibition in test [2], in test [3] and in test [5] were 25%, 25% and 0%, respectively.

On to `COc1ccc(C2=NOC(Cc3noc(C(F)(F)F)n3)C2)cc1F` (centres undefined), for which the IC50 in test [1] is over 100 µM; in test [6], 55 µM.

As for `COc1ccc(C2=NOC(c3noc(-c4ccccc4N(C)C(=O)O)n3)C2)cc1F` (centres undefined), the 50% inhibitory concentration (IC50) in test [1] is over 100 µM.

`COc1ccc(C2=NOC(c3noc(-c4cccc(OC)c4OC)n3)C2)cc1F` (centres undefined): the IC50 in test [1] is 20 µM; in test [4], “Not Active”; in test [6] it was 32 µM.

On to `CC(C)(C)C(=O)NCCC1CC(c2ccc(O)c(F)c2)=NO1` (centres undefined), for which the IC50 in test [1] is 28 µM; in test [4] (read-out: IC50), 15 µM; in test [6], 22 µM. Further, the inhibition was determined as 40% in test [2], 50% in test [3] and 39% in test [5].

Consider `COc1ccc(C2=NOC(c3noc(C(F)(F)F)n3)C2)cc1F` (centres undefined), for which the IC50 was 100 µM in test [1] and 95 µM in test [6].

Turning to `Oc1ccc(C2=NOC(c3noc(-c4cccc(O)c4O)n3)C2)cc1F` (centres undefined), the IC50 in test [1] was 19 µM; in test [4], “Not Active”; in test [6], over 100 µM.

Regarding `Oc1ccc(C2=NOC(Cc3noc(C(F)(F)F)n3)C2)cc1F` (centres undefined), the inhibition in test [2] stood at 34%; in test [3], 46%; in test [5], 33%.

Consider `O=C(NCCC1CC(c2ccc(O)c(F)c2)=NO1)c1ccc(F)cc1` (centres undefined), for which the IC50 in test [1] amounted to 15 µM; in test [4] (read-out: IC50), 10 µM; in test [6], 20 µM. The inhibition in test [2] stood at 56%; in test [3] it was 52%; in test [5], 54%.

For `O=C1c2ccccc2C(=O)N1CC1CC(c2ccc(O)c(F)c2)=NO1` (centres undefined), the IC50 in test [1] was 29 µM; in test [4], “Not Active”; in test [6], 36 µM.

As for `COc1ccc(C2=NOC(c3noc(CCC(=O)NC4CCCCC4)n3)C2)cc1F` (centres undefined), the IC50 in test [1] is 30 µM; in test [4] it was “Not Active”; in test [6] it was 9.5 µM.

With `O=C(NCCC1CC(c2ccc(O)c(F)c2)=NO1)C(F)(F)F` (centres undefined), the values for the IC50 in test [1], in test [4] (read-out: IC50) and in test [6] were 49 µM, 15 µM and over 100 µM, respectively. Besides, the inhibition in test [2] stood at 53%; in test [3], 66%; in test [5], 49%.

Consider `COc1ccc(C2=NOC(c3noc(CCC(=O)O)n3)C2)cc1F` (centres undefined), for which the IC50 in test [1] was 12 µM; in test [4] (read-out: IC50), 60 µM; in test [6], over 100 µM.
